Test results: patent US20090105305A1, “Therapeutic Agents - 550” (AstraZeneca AB, priority 2006, published 2009)

These molecules were tested against T1, human Fatty Acid Synthase (Homo sapiens, UniProt P49327) (assay: Human FAS enzyme assay (decrease in NADPH fluorescence)). Settings: % inhibition at a concentration of 100 micromolar.
T1 construct: made in house
Assay type: biochemical
Description: The compounds of the present invention are Fatty Acid Synthase inhibitors. […] Human and Rat FAS Enzyme Assay.
Fatty acid synthase is an enzyme complex that harbours seven enzymatic activities catalysing the reductive synthesis of long chain fatty acids from acetyl CoA and malonyl CoA to palmitate. When acetyl CoA and malonyl CoA are forming palmitate NADPH is consumed forming NADP. Since NADPH is fluorescent but not NADP the reaction can be measured by analysing the decrease in fluorescence.
Compounds were added to a black 384 well plate (Matrix) in a volume of 5 μl consisting of 20% DMSO and 80% Tris buffer pH 7.5, at a top concentration of 1 mM. NADPH, 30 μl of 166.6 μM, formulated in assay buffer (0.1M Tris ph7.5, 0.1 mM EDTA, 1 mM glutathione, 0.05% BSA), was then added to all of the wells of the plate. Fatty acid synthase Human or rat enzyme (0.4 μg, produced in house), dissolved in 20 mM Tris/HCl pH 7.5, 5 mM BOG, 1 mM TCEP, 10% glycerol, 1 mM EDTA, 150 mM NaCl, was then added to the plate in a volume of […]. Enzyme was added to all but the last two columns of the plate, to which, 10 μl of assay buffer was added (0.1M Tris ph7.5, 0.1 mM EDTA, 1 mM glutathione, 0.05% BSA) to provide a no enzyme assay control. Following a 15-minute incubation period, at room temperature, the plates were read on an Envision plate reader using 340 nm excitation and 460 nm emission filters. This served as a time zero background read. Substrates (an equal mix of both malonyl and acetyl CoA) were then added to the plates in a total volume of 5 μl. The concentrations of malonyl and acetyl CoA in the mixture were 500 μM and 150 μM respectively. Both were prepared as 10 mM stock solutions in distilled water and were subsequently diluted to working concentrations in assay buffer. Plates were then incubated for a further 60 minutes, at room temperature, before being read again on the Envision reader using the same parameters as previously used. The data was analysed by subtracting the background time zero data from that generated following the final 60 minute incubate and the percent inhibition compared to the maximum and minimum assay controls was determined. Sigmoid curves were fitted using Origin 7.5 Client software and IC50 values were determined.

T1 sequence (P49327 whole entry): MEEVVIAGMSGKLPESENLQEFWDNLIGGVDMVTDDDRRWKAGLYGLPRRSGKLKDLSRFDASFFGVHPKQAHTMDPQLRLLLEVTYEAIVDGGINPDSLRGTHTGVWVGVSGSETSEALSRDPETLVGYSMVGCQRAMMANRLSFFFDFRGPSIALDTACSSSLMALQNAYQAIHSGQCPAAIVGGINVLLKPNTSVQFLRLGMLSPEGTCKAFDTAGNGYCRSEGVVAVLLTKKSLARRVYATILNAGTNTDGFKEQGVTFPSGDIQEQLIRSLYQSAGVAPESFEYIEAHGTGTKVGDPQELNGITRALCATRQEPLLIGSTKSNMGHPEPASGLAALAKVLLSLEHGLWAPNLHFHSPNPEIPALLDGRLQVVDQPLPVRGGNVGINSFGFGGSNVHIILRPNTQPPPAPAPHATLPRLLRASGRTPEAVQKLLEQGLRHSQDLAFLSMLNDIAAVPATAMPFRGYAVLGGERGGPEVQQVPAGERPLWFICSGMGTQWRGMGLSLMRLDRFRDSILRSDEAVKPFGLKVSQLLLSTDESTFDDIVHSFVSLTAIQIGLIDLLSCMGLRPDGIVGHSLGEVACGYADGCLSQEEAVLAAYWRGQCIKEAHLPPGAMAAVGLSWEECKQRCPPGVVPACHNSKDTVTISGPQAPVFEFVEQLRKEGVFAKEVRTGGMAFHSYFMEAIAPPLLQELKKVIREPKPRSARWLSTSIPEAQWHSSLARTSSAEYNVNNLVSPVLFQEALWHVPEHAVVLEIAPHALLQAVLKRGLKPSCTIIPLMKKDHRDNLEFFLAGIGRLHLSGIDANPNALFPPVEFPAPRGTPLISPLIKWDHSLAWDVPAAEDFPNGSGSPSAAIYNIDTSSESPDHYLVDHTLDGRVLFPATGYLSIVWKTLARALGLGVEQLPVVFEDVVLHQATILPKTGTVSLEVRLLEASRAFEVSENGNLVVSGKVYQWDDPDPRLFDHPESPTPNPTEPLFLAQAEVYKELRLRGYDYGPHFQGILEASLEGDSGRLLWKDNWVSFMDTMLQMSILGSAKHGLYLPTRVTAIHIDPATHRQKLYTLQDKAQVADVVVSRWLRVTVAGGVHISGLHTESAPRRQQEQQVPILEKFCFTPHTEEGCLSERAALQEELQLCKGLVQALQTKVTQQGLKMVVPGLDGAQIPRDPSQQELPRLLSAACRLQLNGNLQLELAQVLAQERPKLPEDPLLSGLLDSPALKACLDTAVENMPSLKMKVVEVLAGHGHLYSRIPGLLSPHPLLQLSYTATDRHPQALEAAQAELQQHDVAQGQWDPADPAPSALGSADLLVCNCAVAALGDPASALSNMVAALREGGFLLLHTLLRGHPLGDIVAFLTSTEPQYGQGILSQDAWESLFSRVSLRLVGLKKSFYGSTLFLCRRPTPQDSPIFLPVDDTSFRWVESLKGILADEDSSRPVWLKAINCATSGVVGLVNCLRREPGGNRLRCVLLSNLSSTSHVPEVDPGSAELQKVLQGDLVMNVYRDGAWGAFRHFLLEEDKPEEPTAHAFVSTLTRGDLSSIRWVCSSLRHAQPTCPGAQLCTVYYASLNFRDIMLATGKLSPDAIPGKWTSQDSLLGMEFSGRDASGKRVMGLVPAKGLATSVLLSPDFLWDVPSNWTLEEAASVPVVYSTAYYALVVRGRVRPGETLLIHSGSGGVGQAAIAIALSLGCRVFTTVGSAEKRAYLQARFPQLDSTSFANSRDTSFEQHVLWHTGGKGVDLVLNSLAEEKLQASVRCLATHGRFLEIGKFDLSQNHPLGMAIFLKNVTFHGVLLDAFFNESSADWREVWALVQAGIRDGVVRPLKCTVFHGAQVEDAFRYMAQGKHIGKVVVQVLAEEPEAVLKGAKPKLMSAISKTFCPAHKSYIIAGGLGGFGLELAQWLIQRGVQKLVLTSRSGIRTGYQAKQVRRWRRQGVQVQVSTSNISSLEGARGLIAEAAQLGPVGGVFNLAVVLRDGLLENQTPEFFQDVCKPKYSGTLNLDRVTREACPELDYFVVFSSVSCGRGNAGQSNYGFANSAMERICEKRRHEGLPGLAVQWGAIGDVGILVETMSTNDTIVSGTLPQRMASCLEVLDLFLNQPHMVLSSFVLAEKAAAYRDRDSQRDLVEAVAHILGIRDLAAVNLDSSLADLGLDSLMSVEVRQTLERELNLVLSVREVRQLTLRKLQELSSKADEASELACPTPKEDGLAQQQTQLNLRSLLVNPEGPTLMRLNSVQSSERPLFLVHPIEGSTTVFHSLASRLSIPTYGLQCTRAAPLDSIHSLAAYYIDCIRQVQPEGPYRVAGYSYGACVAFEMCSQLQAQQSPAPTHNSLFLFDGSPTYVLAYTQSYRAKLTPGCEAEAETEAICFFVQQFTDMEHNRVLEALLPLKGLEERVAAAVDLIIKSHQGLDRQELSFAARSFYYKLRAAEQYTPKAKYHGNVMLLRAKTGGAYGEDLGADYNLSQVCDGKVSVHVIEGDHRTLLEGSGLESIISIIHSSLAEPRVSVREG

Structure (SMILES) | inhibition at 100 µM
Cc1ccc(NS(=O)(=O)c2ccc(C#N)cc2)cc1C(=O)N1CCC(c2ccc(C#N)cc2)CC1 [Example 49, 4-cyano-N-[3-[4-(4-cyanophenyl)piperidine-1-carbonyl]-4-methyl-phenyl]benzenesulfonamide] | 83%
COc1ccccc1S(=O)(=O)Nc1ccc(C)c(C(=O)N2CCC(c3ccc(C#N)cc3)CC2)c1 [Example 50, N-[3-[4-(4-cyanophenyl)piperidine-1-carbonyl]-4-methyl-phenyl]-2-methoxy-benzenesulfonamide] | 87%
Cc1ccc(NS(=O)(=O)Cc2ccccc2F)cc1C(=O)N1CCC(c2ccc(C#N)cc2)CC1 [Example 51, N-[3-[4-(4-cyanophenyl)piperidine-1-carbonyl]-4-methyl-phenyl]-1-(2-fluorophenyl)methanesulfonamide] | 94%
Cc1ccc(NS(=O)(=O)Cc2cccc(F)c2)cc1C(=O)N1CCC(c2ccc(C#N)cc2)CC1 [Example 52, N-[3-[4-(4-cyanophenyl)piperidine-1-carbonyl]-4-methyl-phenyl]-1-(3-fluorophenyl)methanesulfonamide] | 91%
Cc1ccc(NS(=O)(=O)c2ccc3c(c2)CC(=O)N3)cc1C(=O)N1CCC(c2ccc(C#N)cc2)CC1 [Example 53, N-[3-[4-(4-cyanophenyl)piperidine-1-carbonyl]-4-methyl-phenyl]-2-oxo-1,3-dihydroindole-5-sulfonamide] | 84%
Cc1ccc(NS(=O)(=O)Cc2ccc(S(C)(=O)=O)cc2)cc1C(=O)N1CCC(c2ccc(C#N)cc2)CC1 [Example 54, N-[3-[4-(4-cyanophenyl)piperidine-1-carbonyl]-4-methyl-phenyl]-1-(4-methylsulfonylphenyl)methanesulfonamide] | 84%
Cc1ccc(NS(=O)(=O)CC(F)(F)F)cc1C(=O)N1CCC(c2ccc(C#N)cc2)CC1 [Example 55, N-[3-[4-(4-cyanophenyl)piperidine-1-carbonyl]-4-methyl-phenyl]-2,2,2-trifluoro-ethanesulfonamide] | 79%
Cc1ccc(NS(=O)(=O)Cc2ccc(F)cc2F)cc1C(=O)N1CCC(c2ccc(C#N)cc2)CC1 [Example 56, N-[3-[4-(4-cyanophenyl)piperidine-1-carbonyl]-4-methyl-phenyl]-1-(2,4-difluorophenyl)methanesulfonamide] | 89%
Cc1ccc(NS(=O)(=O)CC(C)C)cc1C(=O)N1CCC(c2ccc(C#N)cc2)CC1 [Example 57, N-[3-[4-(4-cyanophenyl)piperidine-1-carbonyl]-4-methyl-phenyl]-2-methyl-propane-1-sulfonamide] | 94%
Cc1ccc(NS(=O)(=O)CCc2ccccc2)cc1C(=O)N1CCC(c2ccc(C#N)cc2)CC1 [Example 58, N-[3-[4-(4-cyanophenyl)piperidine-1-carbonyl]-4-methyl-phenyl]-2-phenyl-ethanesulfonamide] | 92%
CCCC(C)S(=O)(=O)Nc1ccc(C)c(C(=O)N2CCC(c3ccc(C#N)cc3)CC2)c1 (stereo not drawn) [Example 59, N-[3-[4-(4-cyanophenyl)piperidine-1-carbonyl]-4-methyl-phenyl]pentane-2-sulfonamide] | 89%
Cc1ccc(C(=O)N2CCC(c3ccc(C#N)cc3)CC2)cc1NS(=O)(=O)CC(F)(F)F [Example 60, N-[5-[4-(4-cyanophenyl)piperidine-1-carbonyl]-2-methyl-phenyl]-2,2,2-trifluoro-ethanesulfonamide] | 83%

The remaining lines, values ahead:

inhibition at 100 µM | Structure (SMILES)
93% | Cc1ccc(C(=O)N2CCC(c3ccc(C#N)cc3)CC2)cc1NS(=O)(=O)Cc1ccc(F)cc1F [Example 61, N-[5-[4-(4-cyanophenyl)piperidine-1-carbonyl]-2-methyl-phenyl]-1-(2,4-difluorophenyl)methanesulfonamide]
82% | Cc1ccc(C(=O)N2CCC(c3ccc(C#N)cc3)CC2)cc1NS(=O)(=O)Cc1ccc(S(C)(=O)=O)cc1 [Example 62, N-[5-[4-(4-cyanophenyl)piperidine-1-carbonyl]-2-methyl-phenyl]-1-(4-methylsulfonylphenyl)methanesulfonamide]
85% | CCCC(C)S(=O)(=O)Nc1cc(C(=O)N2CCC(c3ccc(C#N)cc3)CC2)ccc1C (stereo not drawn) [Example 63, N-[5-[4-(4-cyanophenyl)piperidine-1-carbonyl]-2-methyl-phenyl]pentane-2-sulfonamide]
83% | Cc1ccc(C(=O)N2CCC(c3ccc(C#N)cc3)CC2)cc1NS(=O)(=O)CC(C)C [Example 64, N-[5-[4-(4-cyanophenyl)piperidine-1-carbonyl]-2-methyl-phenyl]-2-methyl-propane-1-sulfonamide]
80% | N#Cc1ccc(C2CCN(C(=O)c3cccc(NS(=O)(=O)Cc4ccccc4)c3)CC2)cc1 [Example 66, N-[3-[4-(4-cyanophenyl)piperidine-1-carbonyl]phenyl]-1-phenyl-methanesulfonamide]
92% | Cc1ccc(C(=O)N2CCC(c3ccc(C#N)cc3)CC2)cc1NS(=O)(=O)CCCN1CCOCC1 [Example 67, N-[5-[4-(4-cyanophenyl)piperidine-1-carbonyl]-2-methyl-phenyl]-3-morpholin-4-yl-propane-1-sulfonamide]
74% | Cc1ccc(C(=O)N2CCC(c3ccc(S(C)(=O)=O)cc3)CC2)cc1NS(C)(=O)=O [Example 68, N-[2-methyl-5-[4-(4-methylsulfonylphenyl)piperidine-1-carbonyl]phenyl]methanesulfonamide]
82% | Cc1ccc(NS(=O)(=O)C2CCS(=O)(=O)C2)cc1C(=O)N1CCC(c2ccc(C#N)cc2)CC1 (stereo not drawn) [Example 69, N-[3-[4-(4-cyanophenyl)piperidine-1-carbonyl]-4-methyl-phenyl]-1,1-dioxo-thiolane-3-sulfonamide]
87% | Cc1ccc(C(=O)N2CCC(O)(c3ccc(C#N)cc3)CC2)cc1NS(=O)(=O)Cc1ccccc1 [Example 70, N-[5-[4-(4-cyanophenyl)-4-hydroxy-piperidine-1-carbonyl]-2-methyl-phenyl]-1-phenyl-methanesulfonamide]
100% | Cc1ccc(C(=O)N2CCC(c3ccc(C#N)cc3)CC2)cc1NS(=O)(=O)CCN1C(=O)c2ccccc2C1=O [Example 71, N-[5-[4-(4-cyanophenyl)piperidine-1-carbonyl]-2-methyl-phenyl]-2-(1,3-dioxoisoindol-2-yl)ethanesulfonamide]
93% | Cc1ccc(C(=O)N2CCC(c3ccc(C#N)cc3)CC2)cc1NS(=O)(=O)CCN [Example 72, 2-amino-N-[5-[4-(4-cyanophenyl)piperidine-1-carbonyl]-2-methyl-phenyl]ethanesulfonamide]
94% | Cc1ccc(C(=O)N2CCC(c3ccc(C#N)cc3)CC2)cc1NS(=O)(=O)CCCNC(C)C [Example 73, N-[5-[4-(4-cyanophenyl)piperidine-1-carbonyl]-2-methyl-phenyl]-3-(propan-2-ylamino)propane-1-sulfonamide]
95% | Cc1ccc(C(=O)N2CCC(c3ccc(C#N)cc3)CC2)cc1NS(=O)(=O)CCCN(C)C [Example 74, N-[5-[4-(4-cyanophenyl)piperidine-1-carbonyl]-2-methyl-phenyl]-3-dimethylamino-propane-1-sulfonamide]
93% | CNCCCS(=O)(=O)Nc1cc(C(=O)N2CCC(c3ccc(C#N)cc3)CC2)ccc1C [Example 75, N-[5-[4-(4-cyanophenyl)piperidine-1-carbonyl]-2-methyl-phenyl]-3-methylamino-propane-1-sulfonamide]
97% | COC(=O)c1cccc(S(=O)(=O)Nc2cc(C(=O)N3CCC(c4ccc(C#N)cc4)CC3)ccc2C)c1 [Example 76, Methyl 3-[[5-[4-(4-cyanophenyl)piperidine-1-carbonyl]-2-methyl-phenyl]sulfamoyl]benzoate]
98% | Cc1ccc(C(=O)N2CCC(c3ccc(C#N)cc3)CC2)cc1NS(=O)(=O)CCNS(C)(=O)=O [Example 77, N-[5-[4-(4-cyanophenyl)piperidine-1-carbonyl]-2-methyl-phenyl]-2-methanesulfonamido-ethanesulfonamide]
95% | CC(=O)NCCS(=O)(=O)Nc1cc(C(=O)N2CCC(c3ccc(C#N)cc3)CC2)ccc1C [Example 78, N-[2-[[5-[4-(4-cyanophenyl)piperidine-1-carbonyl]-2-methyl-phenyl]sulfamoyl]ethyl]acetamide]
95% | Cc1ccc(C(=O)N2CCC(c3ccc(C#N)cc3)CC2)cc1NS(=O)(=O)c1cccc(C(=O)O)c1 [Example 79, 3-[[5-[4-(4-cyanophenyl)piperidine-1-carbonyl]-2-methyl-phenyl]sulfamoyl]benzoic acid]
